Test results: ChEMBL document CHEMBL4808148, “HDAC6 screening dataset using tau-based substrate in an enzymatic assay yields selective inhibitors and activators” (2021)

Legend:
[1] = molecular target: T1, Protein deacetylase HDAC6 (Homo sapiens, UniProt Q9UBN7)
T1 sequence (Q9UBN7 whole entry): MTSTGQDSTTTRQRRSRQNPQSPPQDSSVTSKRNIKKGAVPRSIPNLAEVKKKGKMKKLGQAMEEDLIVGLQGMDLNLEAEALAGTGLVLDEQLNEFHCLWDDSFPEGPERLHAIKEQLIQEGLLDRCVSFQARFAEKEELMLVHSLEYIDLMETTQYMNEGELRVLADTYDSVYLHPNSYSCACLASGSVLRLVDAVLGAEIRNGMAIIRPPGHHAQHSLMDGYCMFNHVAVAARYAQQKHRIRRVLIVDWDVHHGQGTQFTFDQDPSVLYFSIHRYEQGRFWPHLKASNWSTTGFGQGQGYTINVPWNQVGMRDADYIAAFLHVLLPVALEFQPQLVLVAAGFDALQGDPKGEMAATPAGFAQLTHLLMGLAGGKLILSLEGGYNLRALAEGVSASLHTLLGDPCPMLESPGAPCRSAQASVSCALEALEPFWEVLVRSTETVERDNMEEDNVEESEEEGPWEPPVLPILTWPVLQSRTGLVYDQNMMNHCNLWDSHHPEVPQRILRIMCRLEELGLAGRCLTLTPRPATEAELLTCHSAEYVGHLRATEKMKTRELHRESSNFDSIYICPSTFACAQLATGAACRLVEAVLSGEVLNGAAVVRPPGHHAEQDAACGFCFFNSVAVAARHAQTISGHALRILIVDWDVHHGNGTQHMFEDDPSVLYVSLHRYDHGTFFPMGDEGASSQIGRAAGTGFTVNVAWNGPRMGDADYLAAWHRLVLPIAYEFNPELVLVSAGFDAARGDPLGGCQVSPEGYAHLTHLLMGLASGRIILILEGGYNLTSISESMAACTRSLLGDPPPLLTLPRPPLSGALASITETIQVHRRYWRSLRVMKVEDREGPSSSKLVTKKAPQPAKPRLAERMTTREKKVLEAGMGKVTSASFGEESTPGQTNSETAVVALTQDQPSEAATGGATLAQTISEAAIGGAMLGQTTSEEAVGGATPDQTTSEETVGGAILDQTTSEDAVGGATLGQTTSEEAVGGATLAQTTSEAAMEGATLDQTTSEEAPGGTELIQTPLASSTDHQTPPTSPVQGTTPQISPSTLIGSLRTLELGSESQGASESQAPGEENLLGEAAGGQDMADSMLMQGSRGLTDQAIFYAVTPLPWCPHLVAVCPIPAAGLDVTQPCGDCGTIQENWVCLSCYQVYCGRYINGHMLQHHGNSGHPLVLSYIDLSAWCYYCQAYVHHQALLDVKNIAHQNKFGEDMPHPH

[2] = molecular target: Protein deacetylase HDAC6 (Homo sapiens) (UniProt Q9UBN7); conditions: at 10 µM
[3] = molecular target: T2, Protein deacetylase HDAC6 (Homo sapiens) (UniProt Q9UBN7); conditions: at 10 µM; remark: listed apart in the source
T2 sequence (whole entry): T1 sequence (Q9UBN7 whole entry)

[4] = molecular target: T1, Protein deacetylase HDAC6; remark: listed apart in the source

## FLUPENTIXOL [listing 1 of 2 here]
[1]
  IC50: 1550 nM

## FLUPENTIXOL [listing 2 of 2 here]
[2]
  inhibition: 89.4%

## CN(C)C(=O)Nc1cccc(-c2ccc(N(C)C)cc2)c1
[3]
  inhibition: 96.2%
[4]
  IC50: 1610 nM

## CN(C)c1nc(N)c(C(=O)Nc2cccnc2)nc1Cl
[3]
  inhibition: 101%
[4]
  IC50: 891 nM

## PHENYLMERCURIC ACETATE
[2]
  inhibition: 60.2%

## c1ccc2c(c1)CCC[C@H]2Nc1nc2ccccc2[nH]1
[3]
  inhibition: 95.8%
[4]
  IC50: 1390 nM

## CCCCCCOc1ccccc1C(N)=O [EXALAMIDE]
[3]
  inhibition: 95.1%
[4]
  IC50: 1400 nM

## Cc1ccc(OCCSc2ncccn2)c(Br)c1
[3]
  inhibition: 98.8%
[4]
  IC50: 485 nM

## O=C(/C=C/c1ccc2ccccc2n1)c1ccncc1
[3]
  inhibition: 78.5%
[4]
  IC50: 1500 nM

## COc1cc(OC)c2c(=O)[nH]c(-c3cc(C)c(OCCO)c(C)c3)nc2c1 [APABETALONE]
[3]
  inhibition: 86.9%
[4]
  IC50: 1690 nM
